# Experimental data taken from US20250163104A1, “MACROCYCLIC IMMUNOMODULATORS” (priority 2021, published 2025).
# Where a SMILES comes first, the peptide text is derived from it. Bridges are numbered along the chain shown (N, C = ends). [ ]: non-standard residue; d: D form. Bip = N[C@@H](Cc1ccc(-c2ccccc2)cc1)C(=O)O; Cit = NC(=O)NCCC[C@H](N)C(=O)O; dOrn = NCCC[C@@H](N)C(=O)O; dDab = NCC[C@@H](N)C(=O)O; Orn = NCCC[C@H](N)C(=O)O; dDap = NC[C@@H](N)C(=O)O; Dab = NCC[C@H](N)C(=O)O; Dap = NC[C@H](N)C(=O)O
# Target: T1, human PD-1 / PD-L1-Ig binding on Jurkat cell line over-expressing human PD-1 (Jurkat-PD-1) (Homo sapiens, UniProt Q15116)
# T1 construct: expressed in transfected cells; host or cells: Jurkat
# Experiment: Jurkat-PD-1 Cell Binding High-Content Screening Assay (CBA)
# Type: cell-based
# Details: Jurkat-PD-1 cells, PE-labeled PD-L1-Ig 20 nM final; read-out: Jurkat HPD1_PDL1 IC50
# Procedure: Example 3. Jurkat-PD-1 Cell Binding High-Content Screening Assay (CBA)
# Jurkat-PD-1 Cell Binding High-Content Screening Assay (CBA). Phycoerythrin (PE) was covalently linked to the Ig epitope tag of human PD-L1-Ig and fluorescently-labeled PD-L1-Ig was used for binding studies with a Jurkat cell line over-expressing human PD-1 (Jurkat-PD-1). Briefly, 8×10^3 Jurkat-hPD-1 cells were seeded into 384 well plates in 20 μl of DMEM supplemented with 10% fetal calf serum. 100 nL of compound was added to cells followed by incubation at 37° C. for 2 h. Then, 5 μl of PE-labeled PD-L1-Ig (20 nM final), diluted in DMEM supplemented with 10% fetal calf serum. After 1 hour incubation, cells were fixed with 4% paraformaldehyde in dPBS containing 10 μg/ml Hoechst 33342 and then washed 3x in 100 μl dPBS. Data was collected and processed using a Cell Insight NXT High Content Imager and associated software.
# T1 sequence (Q15116 25-288): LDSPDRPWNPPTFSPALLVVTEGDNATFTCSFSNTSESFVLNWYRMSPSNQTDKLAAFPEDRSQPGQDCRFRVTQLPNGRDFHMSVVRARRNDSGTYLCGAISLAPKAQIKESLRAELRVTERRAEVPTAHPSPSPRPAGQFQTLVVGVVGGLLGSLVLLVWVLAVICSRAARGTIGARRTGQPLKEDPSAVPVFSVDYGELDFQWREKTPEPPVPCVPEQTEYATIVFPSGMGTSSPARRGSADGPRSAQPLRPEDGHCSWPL
row,SMILES,IC50
1,CC(C)C[C@@H]1NC(=O)[C@H](CCN)NC(=O)[C@@H](CC(C)C)NC(=O)[C@H](C)NC(=O)[C@H](C(C)C)NC(=O)[C@H](Cc2ccc(-c3ccccc3)cc2)NC(=O)[C@H](C(C)C)NC(=O)[C@H](Cc2c[nH]c3ccccc23)NC(=O)[C@H](CC(=O)O)NC(=O)[C@H](Cc2ccc(O)cc2)NC(=O)[C@H](CC(N)=O)NC(=O)CSC[C@@H](C(=O)N[C@@H](C)C(N)=O)NC(=O)[C@H]([C@@H](C)O)NC(=O)[C@H](C(C)C)NC1=O [Compound 1014] ({CH2CO}-NYDWV[Bip]VA[dL][Dab]LVTCA-NH2; thioether N-14),16.7 nM
2,CC(C)C[C@@H]1NC(=O)[C@H](CCN)NC(=O)[C@@H](CC(C)C)NC(=O)[C@H](CCCN)NC(=O)[C@H](C(C)C)NC(=O)[C@H](Cc2ccc(-c3ccccc3)cc2)NC(=O)[C@H](C(C)C)NC(=O)[C@H](Cc2c[nH]c3ccccc23)NC(=O)[C@H](CC(=O)O)NC(=O)[C@H](Cc2ccc(O)cc2)NC(=O)[C@H](CC(N)=O)NC(=O)CSC[C@@H](C(=O)N[C@@H](C)C(N)=O)NC(=O)[C@H]([C@@H](C)O)NC(=O)[C@H](C(C)C)NC1=O [Compound 1015] ({CH2CO}-NYDWV[Bip]V[Orn][dL][Dab]LVTCA-NH2; thioether N-14),23.8 nM
3,CC(C)C[C@@H]1NC(=O)[C@H](CCN)NC(=O)[C@@H](CC(C)C)NC(=O)[C@H](CCCN)NC(=O)[C@H](CCC(=O)O)NC(=O)[C@H](Cc2ccc(-c3ccccc3)cc2)NC(=O)[C@H](C(C)C)NC(=O)[C@H](Cc2c[nH]c3ccccc23)NC(=O)[C@H](CC(=O)O)NC(=O)[C@H](Cc2ccc(O)cc2)NC(=O)[C@H](CC(N)=O)NC(=O)CSC[C@@H](C(=O)N[C@@H](C)C(N)=O)NC(=O)[C@H]([C@@H](C)O)NC(=O)[C@H](C(C)C)NC1=O [Compound 1016] ({CH2CO}-NYDWV[Bip]E[Orn][dL][Dab]LVTCA-NH2; thioether N-14),31.9 nM
4,CC(C)C[C@@H]1NC(=O)[C@H](CCN)NC(=O)[C@@H](CC(C)C)NC(=O)[C@H](CCCN)NC(=O)[C@H](CCCNC(N)=O)NC(=O)[C@H](Cc2ccc(-c3ccccc3)cc2)NC(=O)[C@H](C(C)C)NC(=O)[C@H](Cc2c[nH]c3ccccc23)NC(=O)[C@H](CC(=O)O)NC(=O)[C@H](Cc2ccc(O)cc2)NC(=O)[C@H](CC(N)=O)NC(=O)CSC[C@@H](C(=O)N[C@@H](C)C(N)=O)NC(=O)[C@H]([C@@H](C)O)NC(=O)[C@H](C(C)C)NC1=O [Compound 1017] ({CH2CO}-NYDWV[Bip][Cit][Orn][dL][Dab]LVTCA-NH2; thioether N-14),20.3 nM
5,CC(C)C[C@@H]1NC(=O)[C@H](CCN)NC(=O)[C@@H](CC(C)C)NC(=O)[C@H](CCN)NC(=O)[C@H](CCCNC(N)=O)NC(=O)[C@H](Cc2ccc(-c3ccccc3)cc2)NC(=O)[C@H](C(C)C)NC(=O)[C@H](Cc2c[nH]c3ccccc23)NC(=O)[C@H](CC(=O)O)NC(=O)[C@H](Cc2ccc(O)cc2)NC(=O)[C@H](CC(N)=O)NC(=O)CSC[C@@H](C(=O)N[C@@H](C)C(N)=O)NC(=O)[C@H]([C@@H](C)O)NC(=O)[C@H](C(C)C)NC1=O [Compound 1018] ({CH2CO}-NYDWV[Bip][Cit][Dab][dL][Dab]LVTCA-NH2; thioether N-14),20.7 nM
6,CC(C)C[C@@H]1NC(=O)[C@H](CCN)NC(=O)[C@@H](CC(C)C)NC(=O)[C@H](CCCCN)NC(=O)[C@H](CCCNC(N)=O)NC(=O)[C@H](Cc2ccc(-c3ccccc3)cc2)NC(=O)[C@H](C(C)C)NC(=O)[C@H](Cc2c[nH]c3ccccc23)NC(=O)[C@H](CC(=O)O)NC(=O)[C@H](Cc2ccc(O)cc2)NC(=O)[C@H](CC(N)=O)NC(=O)CSC[C@@H](C(=O)N[C@@H](C)C(N)=O)NC(=O)[C@H]([C@@H](C)O)NC(=O)[C@H](C(C)C)NC1=O [Compound 1019] ({CH2CO}-NYDWV[Bip][Cit]K[dL][Dab]LVTCA-NH2; thioether N-14),20.6 nM
7,CC(C)C[C@@H]1NC(=O)[C@H](CCN)NC(=O)[C@@H](CC(C)C)NC(=O)[C@@H](CC(=O)O)NC(=O)[C@H](C(C)C)NC(=O)[C@H](Cc2ccc(-c3ccccc3)cc2)NC(=O)[C@H](C(C)C)NC(=O)[C@H](Cc2c[nH]c3ccccc23)NC(=O)[C@H](CC(=O)O)NC(=O)[C@H](Cc2ccc(O)cc2)NC(=O)[C@H](CC(N)=O)NC(=O)CSC[C@@H](C(=O)N[C@@H](C)C(N)=O)NC(=O)[C@H]([C@@H](C)O)NC(=O)[C@H](C(C)C)NC1=O [Compound 1021] ({CH2CO}-NYDWV[Bip]V[dD][dL][Dab]LVTCA-NH2; thioether N-14),26.8 nM
8,CC(C)C[C@@H]1NC(=O)[C@H](CCN)NC(=O)[C@@H](CC(C)C)NC(=O)[C@@H](CN)NC(=O)[C@H](C(C)C)NC(=O)[C@H](Cc2ccc(-c3ccccc3)cc2)NC(=O)[C@H](C(C)C)NC(=O)[C@H](Cc2c[nH]c3ccccc23)NC(=O)[C@H](CC(=O)O)NC(=O)[C@H](Cc2ccc(O)cc2)NC(=O)[C@H](CC(N)=O)NC(=O)CSC[C@@H](C(=O)N[C@@H](C)C(N)=O)NC(=O)[C@H]([C@@H](C)O)NC(=O)[C@H](C(C)C)NC1=O [Compound 1022] ({CH2CO}-NYDWV[Bip]V[dDap][dL][Dab]LVTCA-NH2; thioether N-14),17.7 nM

# The remaining lines, values ahead:
row,IC50,SMILES
1,4.6 nM,CC(C)C[C@@H]1NC(=O)[C@H](CCN)NC(=O)[C@@H](CC(C)C)NC(=O)[C@@H](CCN)NC(=O)[C@H](C(C)C)NC(=O)[C@H](Cc2ccc(-c3ccccc3)cc2)NC(=O)[C@H](C(C)C)NC(=O)[C@H](Cc2c[nH]c3ccccc23)NC(=O)[C@H](CC(=O)O)NC(=O)[C@H](Cc2ccc(O)cc2)NC(=O)[C@H](CC(N)=O)NC(=O)CSC[C@@H](C(=O)N[C@@H](C)C(N)=O)NC(=O)[C@H]([C@@H](C)O)NC(=O)[C@H](C(C)C)NC1=O [Compound 1023] ({CH2CO}-NYDWV[Bip]V[dDab][dL][Dab]LVTCA-NH2; thioether N-14)
2,37.3 nM,CC(C)C[C@@H]1NC(=O)[C@H](CCN)NC(=O)[C@@H](CC(C)C)NC(=O)[C@H](CN)NC(=O)[C@H](CCCNC(N)=O)NC(=O)[C@H](Cc2ccc(-c3ccccc3)cc2)NC(=O)[C@H](C(C)C)NC(=O)[C@H](Cc2c[nH]c3ccccc23)NC(=O)[C@H](CC(=O)O)NC(=O)[C@H](Cc2ccc(O)cc2)NC(=O)[C@H](CC(N)=O)NC(=O)CSC[C@@H](C(=O)N[C@@H](C)C(N)=O)NC(=O)[C@H]([C@@H](C)O)NC(=O)[C@H](C(C)C)NC1=O [Compound 1024] ({CH2CO}-NYDWV[Bip][Cit][Dap][dL][Dab]LVTCA-NH2; thioether N-14)
3,11 nM,CC(C)C[C@@H]1NC(=O)[C@H](CCN)NC(=O)[C@@H](CC(C)C)NC(=O)[C@H](CCCCN)NC(=O)[C@H](C(C)C)NC(=O)[C@H](Cc2ccc(-c3ccccc3)cc2)NC(=O)[C@H](C(C)C)NC(=O)[C@H](Cc2c[nH]c3ccccc23)NC(=O)[C@H](CC(=O)O)NC(=O)[C@H](Cc2ccc(O)cc2)NC(=O)[C@H](CC(N)=O)NC(=O)CSC[C@@H](C(=O)N[C@@H](C)C(N)=O)NC(=O)[C@H]([C@@H](C)O)NC(=O)[C@H](C(C)C)NC1=O [Compound 1025] ({CH2CO}-NYDWV[Bip]VK[dL][Dab]LVTCA-NH2; thioether N-14)
4,10.8 nM,CC(C)C[C@@H]1NC(=O)[C@H](CCN)NC(=O)[C@@H](CC(C)C)NC(=O)[C@@H](C)NC(=O)[C@H](C(C)C)NC(=O)[C@H](Cc2ccc(-c3ccccc3)cc2)NC(=O)[C@H](C(C)C)NC(=O)[C@H](Cc2c[nH]c3ccccc23)NC(=O)[C@H](CC(=O)O)NC(=O)[C@H](Cc2ccc(O)cc2)NC(=O)[C@H](CC(N)=O)NC(=O)CSC[C@@H](C(=O)N[C@@H](C)C(N)=O)NC(=O)[C@H]([C@@H](C)O)NC(=O)[C@H](C(C)C)NC1=O [Compound 1026] ({CH2CO}-NYDWV[Bip]V[dA][dL][Dab]LVTCA-NH2; thioether N-14)
5,19.5 nM,CC(C)C[C@@H]1NC(=O)[C@H](CCN)NC(=O)[C@@H](CC(C)C)NC(=O)[C@@H](CCCN)NC(=O)[C@H](C(C)C)NC(=O)[C@H](Cc2ccc(-c3ccccc3)cc2)NC(=O)[C@H](C(C)C)NC(=O)[C@H](Cc2c[nH]c3ccccc23)NC(=O)[C@H](CC(=O)O)NC(=O)[C@H](Cc2ccc(O)cc2)NC(=O)[C@H](CC(N)=O)NC(=O)CSC[C@@H](C(=O)N[C@@H](C)C(N)=O)NC(=O)[C@H]([C@@H](C)O)NC(=O)[C@H](C(C)C)NC1=O [Compound 1027] ({CH2CO}-NYDWV[Bip]V[dOrn][dL][Dab]LVTCA-NH2; thioether N-14)
6,14.3 nM,CC(C)C[C@@H]1NC(=O)[C@H](CCN)NC(=O)[C@@H](CC(C)C)NC(=O)[C@H](CN)NC(=O)[C@H](C(C)C)NC(=O)[C@H](Cc2ccc(-c3ccccc3)cc2)NC(=O)[C@H](C(C)C)NC(=O)[C@H](Cc2c[nH]c3ccccc23)NC(=O)[C@H](CC(=O)O)NC(=O)[C@H](Cc2ccc(O)cc2)NC(=O)[C@H](CC(N)=O)NC(=O)CSC[C@@H](C(=O)N[C@@H](C)C(N)=O)NC(=O)[C@H]([C@@H](C)O)NC(=O)[C@H](C(C)C)NC1=O [Compound 1028] ({CH2CO}-NYDWV[Bip]V[Dap][dL][Dab]LVTCA-NH2; thioether N-14)
7,5.4 nM,CC(C)C[C@@H]1NC(=O)[C@H](CCN)NC(=O)[C@@H](CC(C)C)NC(=O)[C@H](CCN)NC(=O)[C@H](C(C)C)NC(=O)[C@H](Cc2ccc(-c3ccccc3)cc2)NC(=O)[C@H](C(C)C)NC(=O)[C@H](Cc2c[nH]c3ccccc23)NC(=O)[C@H](CC(=O)O)NC(=O)[C@H](Cc2ccc(O)cc2)NC(=O)[C@H](CC(N)=O)NC(=O)CSC[C@@H](C(=O)N[C@@H](C)C(N)=O)NC(=O)[C@H]([C@@H](C)O)NC(=O)[C@H](C(C)C)NC1=O [Compound 1029] ({CH2CO}-NYDWV[Bip]V[Dab][dL][Dab]LVTCA-NH2; thioether N-14)
